Measurements taken from patent US6194465A, “Benzamide therapeutics for the treatment of inflammatory bowel disease” (priority 1999, dated 2001).
Entries after “also recorded” stand apart in the source; their conditions may differ. Where two headings read alike, the source gives them in different places.

Experiments:
[1] = system: adjuvant induced arthritis; experiment: Rat adjuvant induced arthritis model of chronic inflammation; assay type: in vivo; conditions: Compound A 100 mg/kg po or dexamethasone 0.1 mg/kg, daily 7 days, vs adjuvant
Description: Confirmation of the anti-inflammatory activity of Compound A was sought in another related biological test-the rat adjuvant induced arthritis model of chronic inflammation. This model was selected because almost all of the anti-IBD agents also show efficacy in standard arthritis models. In this model Compound A was tested at 100 mg/kg, po in a 1 % methyl cellulose suspension. On day 0 all animals received an injection of either Mycobacterium butyricum (100μL, 20 mg/mL in mineral oil) or mineral oil in the base of the tail. 14 days after this injection, rat paws were measured and all the rats were randomized into 3 treatment groups of 8. A control adjuvant group (group without further treatment), a group to be treated with dexamethasone (steroid reference) and a group to treated with Compound A. Rats received Compound A 100 mg/kg, po, or dexamethasone 0.1 mg/kg, op, daily until day 21 (7 days dosing). On day 21 rats were sacrificed. Paw measurements were taken after 5 and 7 days treatment.

[2] = PK parameter estimates, 30 mg/kg po (Table 1); assay type: in vivo, rats; conditions: additional series of bioavailability experiments
Description: The bioavailability of compound N is depicted in FIG. 10 as well. |(NRTs Dosed 30 mg/kg po in 1% Methyl Cellulose, n = 3 rats/NRT)

bcl-2 = experiment: TNF-α induced reduction in bcl-2 (ELISA); assay type: cell-based; conditions: Compound A 100 μM (printed 100 EM); TNF-α 0.3 or 3.0
Description: Cytokine mediated apoptosis or programmed cell death is believed to be involved in a number of diseases including IBD. Reductions in bcl-2 are a major signal in initiation of the apoptotic cascade (see Jourd'heuil et al., J. Clin Gastroenterol. 25(Suppl):S61-S72 (1997)). The purpose of this study is to investigate the effects of Compound A on bcl-2 protein levels in a cellular model of cytokine mediated apoptosis.
SK-N-MC cells (American Type Culture Collection, Rockville, Md.) were plated at 500,000 cells/plate and treated with retinoic acid ("RA") (5 μM) for 5 days. Following RA treatment, the cells were incubated with Compound A (100 μM) for 1 hour. Cells were then treated with increasing concentrations of TNF-α (0, 0.3 and 3 ng/mL) for 6 h. The cells were harvested and lysed and bcl-2 was measured in the lysate using an ELISA assay (Boehringer Manheim). Quantification of bcl-2 was based on a standard curve and results are expressed as units/mL of bcl-2 in the sample. Results represent mean ±SE for 3 separate cultures.

[3] = system: Myeloperoxidase (MPO) activity; experiment: MPO activity of colon tissue in TNBS model (IV dosing); assay type: in vivo, Male Sprague-Dawley rats
Description: Male Sprague-Dawley rats (200-250 g) were housed in standard cages (2 per cage) and fed rat chow and tap water ad libitum. After an overnight fast, rats were brought into the laboratory and randomized into treatment groups. Colitis was induced by intrarectal administration of 0.5 ml of TNBS solution (50 mg/kg in 50% ethanol) using a 1 ml syringe attached to a 5 cm polyethylene catheter. Control animals received saline (0.9%) or a 1 % methyl cellulose suspension at identical time points.
Myeloperoxidase ("MPO") activity is measured as an index of the intensity of the inflammatory response. In order to determine the MPO activity, a blind study of 300 mg samples of colon tissue were analyzed. This assay uses the spectrophotometric method of Castro et al.
For PO (oral) dosing, Compound A was administered by oral gavage 30 mg/kg as a 1% carboxy methyl cellulose ("CMC") suspension 1 hour prior to the administration of TNBS. Control rats were given CMC only. For IV (intravenous) dosing, Compound A was administered 30 mg/kg by tail vein injection in a 75% PEG/25 % water solution 1 hour prior to administration of TNBS. Control rats were given an injection of 75% PEG/25 % water only. Six rats were dosed for each route of administration.
MPO activity measurements were performed only for samples from the IV administration.

[4] = system: human brain cell aggregates; experiment: TNF-α induced apoptosis in human brain cell aggregates; assay type: cell-based; conditions: compound 1 hour prior to TNF-α, 48 h, read-out: lowest concentration shown to protect against TNF-α induced apoptosis
Description: This test is used to evaluate the potential of Compound A to prevent TNF-α induced apoptosis.
Compound A was evaluated in an in vitro model of TNF-α induced toxicity (see Pulliam et al. J. Neurosci. Res. 21:521-530 (1998)). In this model, human brain cell aggregates from fetal tissue were treated with TNF-α which caused an apoptotic cell death. Brain cell aggregates prepared from 1 brain were incubated for 10-12 days before experimentation. Aggregates were weighed out (100 mg/flask) and aliquoted into 10 mL flasks. TNF-α was used at a concentration of 1 ng. Compound A was added 1 hour prior to the TNF-α. Experiments included untreated brain aggregates, TNF-α-treated brain aggregates, TNF-α-+test compound treated aggregates and test compound treated aggregates. After TNF-α was added, aggregates were incubated for an additional 48 h. After this time, brain aggregates were centrifuged for 5 min at 500 rpm. The supernatant was removed and the pellet was lysed for determination of programmed cell death. (Boeringer Mannheim Cell Death Kit ELISA).

[5] = Absolute oral bioavailability (AUC oral vs IV, 20 mg/kg); assay type: in vivo, rats; conditions: rat, blood
Description: Blood concentrations were determined at 0, 0.083, 0.15, 0.5, 1, 2, 4, 8, and 24 hours post-IV dose and 0, 0.5, 1, 2, 4 and 8 hours post-oral dose. Four animals were dosed orally and four animals were dosed intravenously.
The blood samples were analyzed by HPLC. Detection was by UV at 262 nm. Responses were converted to concentrations by comparison to responses from calibration standards injected onto the column. The resulting concentrations were used to calculate the AUC.

[6] = system: TNBS-induced colonic tissue damage; experiment: TNBS model, dosing after TNBS treatment (morphology, MPO, wet weight); assay type: in vivo, rats
Description: As a follow-on set of experiments we investigated the effects of multiple doses of Compound A administered after TNBS treatment.
Experimental conditions were similar to those described above except that rats were given either Compound A (30 mg/kg PO) or vehicle, administered 4, 8 and 24 hours after TNBS treatment for at total of 3 doses.
In another series of experiments to investigate the duration of action of Compound A was designed to advance previous observations and determine whether a single dose of 90 mg/kg po Compound A given either 4, 8, or 24 hrs after the TNBS enema would reduce the colonic damage.
Experimental conditions were similar to those described above except that rats were given a single large dose of Compound A (90 mg/kg PO) or vehicle either 4, 8 or 24 hours after TNBS treatment.

[7] = 30 mg/kg PO at 4, 8 and 24 hours after TNBS

bioavailability (in words) [2]: excellent bioavailability | bioavailability ([5]; in rats, as restated, read-out: bioavailability): 50% | bioavailability ([5]; oral 20 mg/kg in 1% methyl cellulose vs IV 20 mg/kg in 75% PEG, read-out: absolute bioavailability): 52%
Compound: CC(=O)Nc1ccc(C(=O)NC(C)(C)C)cc1 [Compound A, N-tert-butyl-4-acetamidobenzamide]
inhibition of the inflammatory response [1]: significant inhibition of the inflammatory response (p<0.005) | bcl-2 reduction induced by TNF-α (bcl-2): prevented bcl-2 reduction | protection from TNBS insult as measured by MPO activity (in words) ([3]; IV): provided protection from the TNBS insult | MPO Activity ([3]; IV treatment, 30 mg/kg, TNBS model): 1.77 ± 0.53 units/mg | minimal effective concentration [4]: 0.01 µM | MPO activity, 3 doses after TNBS (in words) [6, 7]: decrease in MPO activity | colonic tissue damage, 3 doses after TNBS [6, 7]: significantly reduced | tissue wet weight, 3 doses after TNBS (in words) [6, 7]: reduction in tissue wet weight | inflammatory damage, single dose after TNBS ([6]; 90 mg/kg po, 4, 8 or 24 hours after TNBS): prevents inflammatory damage; also recorded: less efficacy than the 3 dose (30 mg/kg) oral regimen
